ChEMBL document CHEMBL1201862, “PubChem BioAssay data set” (2004)
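Dose response: 5 concentrations. Exposure: 48 h. Format: 96-well plates. Endpoint: linear interpolation; highest concentration if not reached. GI50 marks 50% less growth.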 Active and inactive are the calls of the source. No stated cut-off is given here; in the data, active = GI50 up to about 1.1 µM and inactive = higher.

How the values were obtained:
Assay in all cases: NCI anticancer screen, dose series, 48 h
HT-29 = test system: HT-29
BT-549 = test system: BT-549
A498 = test system: A498
NCI-H522 = test system: NCI-H522
UO-31 = test system: UO-31
HOP-62 = test system: HOP-62
SK-MEL-28 = test system: SK-MEL-28
OVCAR-4 = test system: OVCAR-4
UACC-257 = test system: UACC-257
Hs-578T = test system: Hs-578T
T47D = test system: T47D
SF-539 = test system: SF-539
PC-3 = test system: PC-3
EKVX = test system: EKVX
SNB-19 = test system: SNB-19
OVCAR-5 = test system: OVCAR-5
LOX IMVI = test system: LOX IMVI
UACC-62 = test system: UACC-62
U-251 = test system: U-251
NCI-H23 = test system: NCI-H23

Structure (SMILES) | GI50 (HT-29) | GI50 (BT-549) | GI50 (A498) | GI50 (NCI-H522) | GI50 (UO-31) | GI50 (HOP-62) | GI50 (SK-MEL-28) | GI50 (OVCAR-4) | GI50 (UACC-257) | GI50 (Hs-578T) | GI50 (T47D) | GI50 (SF-539) | GI50 (PC-3) | GI50 (EKVX) | GI50 (SNB-19) | GI50 (OVCAR-5) | GI50 (LOX IMVI) | GI50 (UACC-62) | GI50 (U-251) | GI50 (NCI-H23)
CCOC1SC(SC)=NN1C(=O)C(OC(C)=O)C(OC(C)=O)C(OC(C)=O)C(OC(C)=O)C(=O)N1N=C(SC)SC1OCC (stereo not given) | > 100 µM (inactive) | > 100 µM (inactive) | > 100 µM (inactive) | > 100 µM (inactive) | > 100 µM (inactive) | > 100 µM (inactive) | > 100 µM (inactive) | 78.5 µM (inactive) | > 100 µM (inactive) | 35.2 µM (inactive) | > 100 µM (inactive) | 69.7 µM (inactive) | > 100 µM (inactive) | > 100 µM (inactive) | > 100 µM (inactive) | > 100 µM (inactive) | > 100 µM (inactive) | > 100 µM (inactive) | 86.3 µM (inactive) | > 100 µM (inactive)
CC1=NN(c2ccccc2)C(=O)C1/N=N/c1ccc([As](=O)(O)O)c(O)c1 (stereo not given) | > 100 µM (inactive) | > 100 µM (inactive) | > 100 µM (inactive) | > 100 µM (inactive) | > 100 µM (inactive) | > 100 µM (inactive) | > 100 µM (inactive) | > 100 µM (inactive) | > 100 µM (inactive) | > 100 µM (inactive) | 60.8 µM (inactive) | > 100 µM (inactive) | > 100 µM (inactive) | > 100 µM (inactive) | > 100 µM (inactive) | > 100 µM (inactive) | > 100 µM (inactive) | > 100 µM (inactive) | > 100 µM (inactive) | > 100 µM (inactive)
CC1=Nn2c(nc3sc4c(c3c2=O)CCCC4)SC1 | > 88.7 µM (inactive) | 31.5 µM (inactive) | > 50.1 µM (inactive) | 53.2 µM (inactive) | 37.8 µM (inactive) | > 100 µM (inactive) | > 100 µM (inactive) | 71.3 µM (inactive) | > 100 µM (inactive) | > 90.4 µM (inactive) | 58.5 µM (inactive) | > 48.6 µM (inactive) | 63 µM (inactive) | > 69.5 µM (inactive) | 90.2 µM (inactive) | > 100 µM (inactive) | 21.4 µM (inactive) | 76.4 µM (inactive) | 45.5 µM (inactive) | > 100 µM (inactive)
O=C1N/C(=N/N=C/c2ccccc2)N/C1=C\c1cccs1 | 19.1 µM (inactive) | 15.2 µM (inactive) | 13 µM (inactive) | 1.98 µM (inactive) | 21.8 µM (inactive) | 18.3 µM (inactive) | 15.8 µM (inactive) | 22.3 µM (inactive) | 30.5 µM (inactive) | 2.77 µM (inactive) | 28.2 µM (inactive) | 10.4 µM (inactive) | 10 µM (inactive) | 21.5 µM (inactive) | 21.9 µM (inactive) | 28.6 µM (inactive) | 8.34 µM (inactive) | 20.1 µM (inactive) | 15.6 µM (inactive) | 15.9 µM (inactive)
C[N+]12CCCCC1C(CN1C(=O)Cc3c4ccccc4c(c4ccccc34)CC1=O)CCC2 (stereo not given) | > 100 µM (inactive) | > 100 µM (inactive) | > 100 µM (inactive) | > 100 µM (inactive) | > 100 µM (inactive) | > 100 µM (inactive) | > 100 µM (inactive) | > 100 µM (inactive) | > 100 µM (inactive) | > 100 µM (inactive) | > 100 µM (inactive) | > 100 µM (inactive) | > 100 µM (inactive) | > 100 µM (inactive) | > 100 µM (inactive) | > 100 µM (inactive) | > 100 µM (inactive) | > 100 µM (inactive) | > 100 µM (inactive) | > 100 µM (inactive)
CC(C)=CCc1c(O)cc2oc(-c3ccc(O)cc3O)cc(=O)c2c1O | 23.1 µM (inactive) | 29.8 µM (inactive) | 44.2 µM (inactive) | 22.3 µM (inactive) | 4.32 µM (inactive) | 33.3 µM (inactive) | 31.6 µM (inactive) | 20.2 µM (inactive) | 30.9 µM (inactive) | 42.8 µM (inactive) | 19 µM (inactive) | 27.4 µM (inactive) | 34.7 µM (inactive) | 42.3 µM (inactive) | 40.6 µM (inactive) | 31 µM (inactive) | 9.53 µM (inactive) | 18.1 µM (inactive) | 32.2 µM (inactive) | 24.6 µM (inactive)
Nc1ncnc2c1ncn2[C@@H]1O[C@H](COP(=O)(O)OP(=O)(O)OC[C@H]2O[C@@H](OCCCO)[C@H](O)[C@@H]2O)[C@@H](O)[C@H]1O | 69.8 µM (inactive) | > 100 µM (inactive) | > 100 µM (inactive) | > 100 µM (inactive) | > 100 µM (inactive) | > 100 µM (inactive) | > 100 µM (inactive) | > 100 µM (inactive) | > 100 µM (inactive) | > 100 µM (inactive) | > 100 µM (inactive) | > 100 µM (inactive) | > 100 µM (inactive) | > 100 µM (inactive) | 76.6 µM (inactive) | > 100 µM (inactive) | 56.8 µM (inactive) | > 100 µM (inactive) | > 100 µM (inactive) | > 100 µM (inactive)
C/C(=N\NC(=S)N1CCN(c2ccccn2)CC1)c1ccccn1 | 0.0745 µM (active) | 0.01 µM (active) | 0.853 µM (active) | 0.0818 µM (active) | 0.998 µM (active) | 0.035 µM (active) | 0.208 µM (active) | 0.331 µM (active) | 0.00135 µM (active) | 0.129 µM (active) | 0.107 µM (active) | 0.397 µM (active) | 0.0304 µM (active) | < 0.0154 µM (active) | 0.27 µM (active) | 0.0474 µM (active) | 0.0403 µM (active) | 0.00646 µM (active) | 0.00356 µM (active) | 0.022 µM (active)
NC(Cc1c[nH]c2cc([N+](=O)[O-])ccc12)C(=O)O (stereo not given) | > 100 µM (inactive) | > 100 µM (inactive) | > 100 µM (inactive) | > 100 µM (inactive) | > 100 µM (inactive) | > 100 µM (inactive) | > 100 µM (inactive) | > 100 µM (inactive) | > 100 µM (inactive) | > 100 µM (inactive) | > 100 µM (inactive) | > 100 µM (inactive) | > 100 µM (inactive) | > 100 µM (inactive) | > 100 µM (inactive) | > 100 µM (inactive) | > 100 µM (inactive) | > 100 µM (inactive) | > 100 µM (inactive) | > 100 µM (inactive)
O=C1OC(C(O)C(O)C(O)CO)C(O)C1O (stereo not given) | > 100 µM (inactive) | > 100 µM (inactive) | > 100 µM (inactive) | > 100 µM (inactive) | > 100 µM (inactive) | > 100 µM (inactive) | > 100 µM (inactive) | > 100 µM (inactive) | > 100 µM (inactive) | > 100 µM (inactive) | > 100 µM (inactive) | > 100 µM (inactive) | > 100 µM (inactive) | > 100 µM (inactive) | > 100 µM (inactive) | > 100 µM (inactive) | > 100 µM (inactive) | > 100 µM (inactive) | > 100 µM (inactive) | > 100 µM (inactive)
COC(=O)C1SC[C@H]2C(=O)N(c3ccccc3)C(=O)N12 (stereo not given in full) | > 100 µM (inactive) | > 100 µM (inactive) | 21.4 µM (inactive) | > 100 µM (inactive) | > 100 µM (inactive) | > 100 µM (inactive) | > 100 µM (inactive) | > 100 µM (inactive) | > 100 µM (inactive) | > 100 µM (inactive) | > 100 µM (inactive) | > 100 µM (inactive) | > 100 µM (inactive) | > 100 µM (inactive) | > 100 µM (inactive) | > 100 µM (inactive) | > 100 µM (inactive) | > 100 µM (inactive) | > 100 µM (inactive) | > 100 µM (inactive)
O=C(c1ccccc1)N(C(=O)c1ccccc1)c1nc(SCc2ccccc2)ns1 | 25.5 µM (inactive) | 28.8 µM (inactive) | 27.9 µM (inactive) | 20 µM (inactive) | 6.11 µM (inactive) | 32.9 µM (inactive) | 30.8 µM (inactive) | 39.9 µM (inactive) | 22.2 µM (inactive) | 26.1 µM (inactive) | 25 µM (inactive) | 22.3 µM (inactive) | 28.2 µM (inactive) | 25.7 µM (inactive) | 50.6 µM (inactive) | 33.7 µM (inactive) | 28.6 µM (inactive) | 17.1 µM (inactive) | 19.2 µM (inactive) | 24 µM (inactive)
NCc1ccc(O)c(O)c1O | 16.9 µM (inactive) | 18.4 µM (inactive) | 75.3 µM (inactive) | > 59 µM (inactive) | 59.7 µM (inactive) | 46.6 µM (inactive) | 62.5 µM (inactive) | 26.1 µM (inactive) | 30.8 µM (inactive) | 10.7 µM (inactive) | 26.2 µM (inactive) | 27.1 µM (inactive) | 33 µM (inactive) | 39.7 µM (inactive) | 54.5 µM (inactive) | 17.3 µM (inactive) | 16.8 µM (inactive) | 27.1 µM (inactive) | 24.9 µM (inactive) | 28.1 µM (inactive)
O=C1c2ccccc2C(=O)c2c1ccc1nc3c(nc21)-c1c2ccccc2cc2cccc-3c12 | 27 µM (inactive) | 80.2 µM (inactive) | > 50.9 µM (inactive) | 27.2 µM (inactive) | 17.6 µM (inactive) | 26.5 µM (inactive) | > 92.7 µM (inactive) | > 70.1 µM (inactive) | > 100 µM (inactive) | 13.7 µM (inactive) | 33.6 µM (inactive) | 21.4 µM (inactive) | 41.9 µM (inactive) | 18.3 µM (inactive) | 38.4 µM (inactive) | > 100 µM (inactive) | 19.9 µM (inactive) | 26.5 µM (inactive) | 31.3 µM (inactive) | 41.6 µM (inactive)
